# Measurements reported in PubChem BioAssay AID1963833 (Molecular Pharmacology Branch, DTP, NCI, 2024).
# pIC50: −log10 of the molar value.
# Tested on: 883617-216-R-J1-PDC complex spheroid viability
# Experiment: Anticancer human tumor 883617-216-R-J1-PDC patient-derived bladder carcinoma cell line growth inhibition [POLQ]
# Conditions: for pIC50: curve of first compound; for viability, T/C: stronger effect = lower value
# Description: Multicellular complex tumor spheroid response to Polymerase (POL) inhibitors (novobiocin, ART-558, RP6685) in combination with a variety of drugs and investigational agents in selected tumor cell lines
# The POL inhibitors (novobiocin, ART-558, and RP6685) were evaluated both individually and in combination with standard of care and investigational anticancer small molecules within a complex spheroid model of solid tumors. . Complex spheroids include a stromal component modeled by human endothelial cells (HUVEC) and fibroblasts modeled by human mesenchymal stem cells (MSCs). The concentration ranges selected for each drug and investigational agent were based upon clinically achievable concentrations if the clinical Cmax of the agent was known.
# Compounds. The drugs and investigational agents: novobiocin (NSC847541), ART-558 (NSC835418), RP-6685 (NSC848927), peposertib (NSC802822), ceralasertib (NSC780249), elimusertib (NSC800525), camonsertib (NSC841442), AZD-1390 (NSC803789), olaparib (NSC753686), talazoparib (NSC767125), rucaparib (NSC756644), sotorasib (NSC818433), MRTX-1133 (NSC836407), SN-38 (NSC673596), topotecan (NSC609699), epotoside (NSC141540), doxorubicin (NSC123127), gemcitabine (NSC613327), 5-fluorouracil (NSC19893), paclitaxel (NSC125973), vemurafenib (NSC761431), MSA-2 (NSC828583), SN-011 (NSC837082), adavosertib (NSC754352), prexasertib (NSC758257), carboplatin (NSC241240) and oxaliplatin (NSC266046), were obtained from the National Cancer Institute (NCI) Developmental Therapeutics Program Chemical Repository (21). The FDA-approved anticancer drug set is available from the Developmental Therapeutics Program at https://dtp.cancer.gov/organization/dscb/obtaining/. […] The stock solutions were prepared in dimethyl sulfoxide (DMSO, Sigma-Aldrich, St. Louis, MO, cat. D2650), except for the platinum compounds which were prepared in saline (Quality Biological, Gaithersburg, MD, cat. 114-055-101), at 800-fold the tested concentration and stored at -70 degrees C prior to their use. All drugs and investigational agents were tested over a range starting from a high concentration at or near the clinical Cmax and decreasing in half-log increments. If the clinical Cmax for an agent had not been determined, the highest concentration tested was 10 microM, except for SN-38, which was tested at a high concentration of 1 microM.
# Cell Culture. All cells were maintained in an incubator at 37 degrees C and 5% CO2 with 95% humidity. The PDC lines were cultured according to standard operating procedures established by the NCI PDMR (https://pdmr.cancer.gov). Table 3 of the manuscript, lists the cell lines along with the number of the three cell types plated to form the mct-spheroids and media for tumor cell growth. After thawing, all PDC lines, except 997537-175-T-J1-PDC and 415267-285-R-J2-PDC, were cultured in Matrigel-coated flasks prepared with a working solution of 1X Ham's F-12 nutrient mix, without supplementation (Thermo Fisher Scientific, cat. 11765054), 100 U/mL penicillin-streptomycin (Thermo Fisher Scientific, cat. 15140122), and 2.5% Matrigel (Corning Inc., Corning, NY, cat. 354248) for the first three passages. The two PDC lines 997537-175-T-J1-PDC and 415267-285-R-J2-PDC were cultured on uncoated flasks. The 857933-349-R-J2-PDC line was cultured in 6C/Colon 1B media containing advanced DMEM/F-12 (Thermo Fisher Scientific, cat. 12634028), 10 mM HEPES (Thermo Fisher Scientific, cat. 15630080), 1X GlutaMAX supplement (Thermo Fisher Scientific, cat. 35050061), 0.1 mg/mL primocin (InvivoGen, San Diego, CA, cat. ant-pm-2), 10% defined fetal bovine serum, heat inactivated (HyClone Laboratories Inc., Logan, UT, cat. SH30070.03HI), 50% L-WRN conditioned media (ATCC, cat. CRL-3276), 1.25 mM N-Acetyl-L-cysteine (Sigma-Aldrich, cat. A9165), 10 mM nicotinamide (Sigma-Aldrich, cat. N0636), 1X B-27 supplement (Thermo Fisher Scientific, cat. 17504044), 1X N-2 supplement (Thermo Fisher Scientific, cat. […]
# 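Further: spheroids exposed to compounds for seven days before readout.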
# 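Wherever viability, T/C is given: 100% = DMSO vehicle control viability.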
compound,measurement,setting,value
COc1cccc(OCCCN)c1-c1cc(Nc2cnc(C#N)cn2)n[nH]1 + Cc1cccc(N(C)C(=O)C2C(O)CCN2c2nc(C)cc(C(F)(F)F)c2C#N)c1,pIC50,second compound 0.0316 µM,7.15
same,pIC50,second compound 0.1 µM,7.12
same,pIC50,second compound 0.316 µM,7.52
same,pIC50,second compound 1 µM,7.11
same,pIC50,second compound 3.16 µM,7.03
same,pIC50,second compound 10 µM,6.84
same,"viability, T/C","second compound 0.0316 µM, first compound 0.00316 µM",84.8%
same,"viability, T/C","second compound 0.0316 µM, first compound 0.01 µM",70.7%
same,"viability, T/C","second compound 0.0316 µM, first compound 0.0316 µM",61.9%
same,"viability, T/C","second compound 0.0316 µM, first compound 0.1 µM",46.8%
same,"viability, T/C","second compound 0.0316 µM, first compound 0.316 µM",33.9%
same,"viability, T/C","second compound 0.0316 µM, first compound 1 µM",35%
same,"viability, T/C","second compound 0.1 µM, first compound 0.00316 µM",95.5%
same,"viability, T/C","second compound 0.1 µM, first compound 0.01 µM",81.7%
same,"viability, T/C","second compound 0.1 µM, first compound 0.0316 µM",68.5%
same,"viability, T/C","second compound 0.1 µM, first compound 0.1 µM",40.8%
same,"viability, T/C","second compound 0.1 µM, first compound 0.316 µM",39.7%
same,"viability, T/C","second compound 0.1 µM, first compound 1 µM",30.7%
same,"viability, T/C","second compound 0.316 µM, first compound 0.00316 µM",86.9%
same,"viability, T/C","second compound 0.316 µM, first compound 0.01 µM",81.8%
same,"viability, T/C","second compound 0.316 µM, first compound 0.0316 µM",48.2%
same,"viability, T/C","second compound 0.316 µM, first compound 0.1 µM",45.7%
same,"viability, T/C","second compound 0.316 µM, first compound 0.316 µM",40.4%
same,"viability, T/C","second compound 0.316 µM, first compound 1 µM",35.4%
same,"viability, T/C","second compound 1 µM, first compound 0.00316 µM",91.4%
same,"viability, T/C","second compound 1 µM, first compound 0.01 µM",82.9%
same,"viability, T/C","second compound 1 µM, first compound 0.0316 µM",51.2%
same,"viability, T/C","second compound 1 µM, first compound 0.1 µM",51.4%
same,"viability, T/C","second compound 1 µM, first compound 0.316 µM",39.5%
same,"viability, T/C","second compound 1 µM, first compound 1 µM",29.1%
same,"viability, T/C","second compound 3.16 µM, first compound 0.00316 µM",91.5%
same,"viability, T/C","second compound 3.16 µM, first compound 0.01 µM",77%
same,"viability, T/C","second compound 3.16 µM, first compound 0.0316 µM",47.1%
same,"viability, T/C","second compound 3.16 µM, first compound 0.1 µM",60.2%
same,"viability, T/C","second compound 3.16 µM, first compound 0.316 µM",41.1%
same,"viability, T/C","second compound 3.16 µM, first compound 1 µM",31.8%
same,"viability, T/C","second compound 10 µM, first compound 0.00316 µM",88.3%
same,"viability, T/C","second compound 10 µM, first compound 0.01 µM",83.5%
same,"viability, T/C","second compound 10 µM, first compound 0.0316 µM",65.8%
same,"viability, T/C","second compound 10 µM, first compound 0.1 µM",51.7%
same,"viability, T/C","second compound 10 µM, first compound 0.316 µM",46.6%
same,"viability, T/C","second compound 10 µM, first compound 1 µM",47.5%
